Results reported in publication PMC12823440, “Inhibitors supercharge kinase turnover through native proteolytic circuits” (Nature, 2025).

What was measured:
Assay in all cases: biochemical
[1] = biological target: ABL1 (Homo sapiens, UniProt P00519)
[2] = biological target: ABL2 (Homo sapiens, UniProt P42684)
[3] = biological target: BTK (Homo sapiens, UniProt Q06187)
[4] = biological target: T1, MAP4K3 (Homo sapiens, UniProt Q8IVH8)
T1 sequence (Q8IVH8 1-894): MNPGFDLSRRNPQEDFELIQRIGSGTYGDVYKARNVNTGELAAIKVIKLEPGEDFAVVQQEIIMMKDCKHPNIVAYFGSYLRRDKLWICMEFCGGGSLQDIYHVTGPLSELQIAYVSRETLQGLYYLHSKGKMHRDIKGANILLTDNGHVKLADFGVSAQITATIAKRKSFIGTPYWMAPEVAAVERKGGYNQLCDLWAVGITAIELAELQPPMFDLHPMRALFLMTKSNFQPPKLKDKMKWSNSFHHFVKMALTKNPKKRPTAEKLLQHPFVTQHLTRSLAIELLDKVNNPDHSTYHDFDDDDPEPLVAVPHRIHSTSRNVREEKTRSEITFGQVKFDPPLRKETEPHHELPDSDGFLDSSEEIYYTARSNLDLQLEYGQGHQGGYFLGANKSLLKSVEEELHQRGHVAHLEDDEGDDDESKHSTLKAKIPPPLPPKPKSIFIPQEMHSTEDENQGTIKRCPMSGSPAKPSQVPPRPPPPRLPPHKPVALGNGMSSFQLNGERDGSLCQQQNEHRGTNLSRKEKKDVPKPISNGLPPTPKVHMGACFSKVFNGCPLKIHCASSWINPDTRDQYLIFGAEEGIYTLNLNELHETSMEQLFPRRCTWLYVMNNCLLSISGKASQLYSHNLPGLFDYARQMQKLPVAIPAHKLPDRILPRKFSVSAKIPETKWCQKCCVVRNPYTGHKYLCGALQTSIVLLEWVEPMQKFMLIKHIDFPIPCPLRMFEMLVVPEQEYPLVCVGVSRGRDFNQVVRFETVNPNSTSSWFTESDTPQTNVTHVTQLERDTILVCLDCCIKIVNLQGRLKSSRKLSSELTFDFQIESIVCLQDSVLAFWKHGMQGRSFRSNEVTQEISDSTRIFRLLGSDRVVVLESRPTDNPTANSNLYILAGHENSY

Sequence of BTK (Q06187 whole entry): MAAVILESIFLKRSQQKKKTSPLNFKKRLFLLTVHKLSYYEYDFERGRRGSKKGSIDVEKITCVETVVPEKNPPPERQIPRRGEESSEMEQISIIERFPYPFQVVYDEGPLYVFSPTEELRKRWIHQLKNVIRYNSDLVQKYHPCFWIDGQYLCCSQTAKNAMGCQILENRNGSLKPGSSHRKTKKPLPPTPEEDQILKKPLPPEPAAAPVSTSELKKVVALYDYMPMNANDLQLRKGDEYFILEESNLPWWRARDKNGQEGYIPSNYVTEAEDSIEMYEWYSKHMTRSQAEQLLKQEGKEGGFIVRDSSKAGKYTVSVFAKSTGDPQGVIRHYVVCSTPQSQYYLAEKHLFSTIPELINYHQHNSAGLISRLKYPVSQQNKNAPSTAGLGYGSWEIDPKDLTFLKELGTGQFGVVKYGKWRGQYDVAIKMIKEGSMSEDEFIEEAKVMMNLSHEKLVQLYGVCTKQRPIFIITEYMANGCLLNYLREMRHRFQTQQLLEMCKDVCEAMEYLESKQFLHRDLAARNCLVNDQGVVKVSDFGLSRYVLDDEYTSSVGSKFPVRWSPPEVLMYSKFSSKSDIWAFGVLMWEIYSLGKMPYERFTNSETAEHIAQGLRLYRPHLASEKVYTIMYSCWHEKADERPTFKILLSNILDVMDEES
Sequence of ABL1 (P00519 whole entry): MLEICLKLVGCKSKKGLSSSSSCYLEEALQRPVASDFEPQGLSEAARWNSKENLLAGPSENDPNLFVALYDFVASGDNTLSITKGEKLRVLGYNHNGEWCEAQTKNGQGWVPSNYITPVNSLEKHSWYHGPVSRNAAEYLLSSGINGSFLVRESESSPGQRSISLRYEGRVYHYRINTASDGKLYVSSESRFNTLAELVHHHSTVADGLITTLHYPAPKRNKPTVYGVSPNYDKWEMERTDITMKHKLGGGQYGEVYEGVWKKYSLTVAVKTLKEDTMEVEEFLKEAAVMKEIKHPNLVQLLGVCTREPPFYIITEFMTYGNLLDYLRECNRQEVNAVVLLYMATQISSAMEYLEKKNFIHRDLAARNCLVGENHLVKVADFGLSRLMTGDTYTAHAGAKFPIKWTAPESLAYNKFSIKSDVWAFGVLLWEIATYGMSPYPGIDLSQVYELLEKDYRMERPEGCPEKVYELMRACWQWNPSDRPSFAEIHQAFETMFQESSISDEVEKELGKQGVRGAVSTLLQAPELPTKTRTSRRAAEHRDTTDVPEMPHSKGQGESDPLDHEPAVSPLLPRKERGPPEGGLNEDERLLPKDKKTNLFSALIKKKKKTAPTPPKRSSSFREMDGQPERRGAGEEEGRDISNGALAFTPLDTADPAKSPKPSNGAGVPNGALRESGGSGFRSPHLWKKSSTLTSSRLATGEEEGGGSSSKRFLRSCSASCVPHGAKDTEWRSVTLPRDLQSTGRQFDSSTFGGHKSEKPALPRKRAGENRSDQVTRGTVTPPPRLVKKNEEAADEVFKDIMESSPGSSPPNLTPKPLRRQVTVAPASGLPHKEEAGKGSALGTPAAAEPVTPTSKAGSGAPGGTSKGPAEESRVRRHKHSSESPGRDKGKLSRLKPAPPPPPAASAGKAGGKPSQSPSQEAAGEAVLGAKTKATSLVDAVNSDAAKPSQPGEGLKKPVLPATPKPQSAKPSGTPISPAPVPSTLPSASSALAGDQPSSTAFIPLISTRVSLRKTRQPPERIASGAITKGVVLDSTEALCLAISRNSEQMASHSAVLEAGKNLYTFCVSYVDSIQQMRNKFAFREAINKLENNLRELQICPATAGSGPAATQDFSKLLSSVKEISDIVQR
Sequence of ABL2 (P42684 whole entry): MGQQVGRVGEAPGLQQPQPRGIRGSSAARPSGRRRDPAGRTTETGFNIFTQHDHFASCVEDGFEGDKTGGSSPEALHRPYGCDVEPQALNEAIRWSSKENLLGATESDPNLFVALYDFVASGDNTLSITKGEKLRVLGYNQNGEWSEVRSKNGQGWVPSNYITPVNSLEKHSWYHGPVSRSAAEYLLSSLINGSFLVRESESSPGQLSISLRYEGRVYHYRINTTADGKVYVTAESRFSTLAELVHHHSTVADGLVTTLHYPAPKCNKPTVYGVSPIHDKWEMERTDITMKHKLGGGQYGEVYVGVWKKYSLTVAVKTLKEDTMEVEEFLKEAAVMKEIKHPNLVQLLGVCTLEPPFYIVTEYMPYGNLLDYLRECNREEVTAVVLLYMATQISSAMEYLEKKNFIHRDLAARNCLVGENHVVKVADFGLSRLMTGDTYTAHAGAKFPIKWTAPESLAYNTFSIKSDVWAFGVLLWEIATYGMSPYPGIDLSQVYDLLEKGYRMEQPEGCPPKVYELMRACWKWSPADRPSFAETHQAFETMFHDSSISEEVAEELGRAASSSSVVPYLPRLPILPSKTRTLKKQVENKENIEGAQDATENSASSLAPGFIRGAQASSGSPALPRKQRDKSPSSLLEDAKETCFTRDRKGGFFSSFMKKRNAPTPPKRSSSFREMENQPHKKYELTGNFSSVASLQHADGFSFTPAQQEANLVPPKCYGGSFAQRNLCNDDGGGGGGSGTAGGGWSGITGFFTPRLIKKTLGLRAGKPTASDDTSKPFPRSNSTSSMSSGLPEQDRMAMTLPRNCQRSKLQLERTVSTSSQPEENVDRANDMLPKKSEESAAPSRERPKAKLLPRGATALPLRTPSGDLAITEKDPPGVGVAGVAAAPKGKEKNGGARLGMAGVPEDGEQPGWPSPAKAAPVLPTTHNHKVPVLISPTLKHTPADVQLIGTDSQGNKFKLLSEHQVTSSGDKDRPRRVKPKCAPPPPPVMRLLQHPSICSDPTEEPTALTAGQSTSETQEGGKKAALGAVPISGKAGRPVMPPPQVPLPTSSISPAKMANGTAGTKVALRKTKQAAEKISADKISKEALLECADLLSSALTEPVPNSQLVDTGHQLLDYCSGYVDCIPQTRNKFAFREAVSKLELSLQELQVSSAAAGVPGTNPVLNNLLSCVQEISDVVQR

Structure (SMILES): COc1ccc2c(C(=O)Nc3ccc(NC(=O)c4nn(C5CCN(C(=O)CC(C)(C)C#N)CC5)c5ccc(F)cc45)cc3Cl)cnn2c1 [SI-3]
- Kd [1]: 353 nM
- Kd [2]: 40.2 nM
- Kd [3]: 3080 nM
- Kd [4]: 9700 nM
